Data on seven compounds can be found in ChEMBL document CHEMBL4480423, “Mindapyrroles A-C, Pyoluteorin Analogues from a Shipworm-Associated Bacterium” (J Nat Prod, 2019).

In one experiment the test system is Bacillus subtilis. The experiment in a line: Antibacterial activity against Bacillus subtilis ATCC 6051 after 24 hrs by resazurin dye based fluorescence assay. In kind it is functional. The following applies: ATCC 6051, 24 h. (In general: Alamar Blue is a resazurin reagent that responds to reducing activity.)
In a further experiment the test system is Enterococcus faecium. The experiment in a line: Antibacterial activity against Enterococcus faecium ATCC […] after 24 hrs by resazurin dye based fluorescence assay. In kind it is functional.
Experiment [1] relates to Staphylococcus aureus. As to the kind of experiment: Antibacterial activity against Staphylococcus aureus ATCC 6538 after 24 hrs by resazurin dye based fluorescence assay. The experiment is classed as functional. The conditions noted are these: ATCC 6538, 24 h.
For experiment [2], the system named is Staphylococcus epidermidis. As to the kind of experiment: Antibacterial activity against Staphylococcus epidermidis ATCC 35984 after 24 hrs by resazurin dye based fluorescence assay. In kind it is functional. The conditions noted are these: ATCC 35984, 24 h.
The test system of experiment [3] is Staphylococcus aureus. As to the kind of experiment: Antibacterial activity against methicillin-resistant Staphylococcus aureus ATCC 43300 after 24 hrs by resazurin dye based fluorescence assay. In kind it is functional. The conditions noted are these: ATCC 43300, 24 h.
The test system of the next experiment is Pseudomonas aeruginosa. The experiment in a line: Antibacterial activity against Pseudomonas aeruginosa ATCC 15442 after 24 hrs by resazurin dye based fluorescence assay. The experiment is classed as functional. The conditions noted are these: ATCC 15442, 24 h.
For a further experiment, the system named is MDCK. The experiment in a line: Cytotoxicity against MDCK cells assessed as reduction in cell viability after 72 hrs by MTT assay. The conditions noted are these: Canis lupus familiaris. The experiment is classed as cell-based. (Tetrazolium dyes change colour on reduction, which living cells bring about.)

In brackets after ≈: the same amount, converted by molar mass.

The MIC is the least concentration at which growth counts as inhibited. With `Cc1onc(-c2ccccc2)c1C(=O)N[C@@H]1C(=O)N2[C@@H]1SC(C)(C)[C@@H]2C(=O)O` [OXACILLIN], the MIC in the experiment on Bacillus subtilis is 1 µg/mL (≈ 2.49 µM); with Enterococcus faecium, > 32 µg/mL; against Staphylococcus aureus [1], 0.13 µg/mL (≈ 0.324 µM); in experiment [2], 2 µg/mL (≈ 4.98 µM); with Staphylococcus aureus [3], 8 µg/mL (≈ 19.9 µM).

The term IC50 denotes the concentration that gives 50% inhibition. As to `O=C(c1cc(Cl)c(Cl)[nH]1)c1c(O)ccc(Cc2cc(C(c3csc(-c4ccccc4O)n3)c3ccc(O)c(C(=O)c4cc(Cl)c(Cl)[nH]4)c3O)c(O)c(C(=O)c3cc(Cl)c(Cl)[nH]3)c2O)c1O` (stereo not given), the MIC against Bacillus subtilis was 8 µg/mL (≈ 7.88 µM); against Enterococcus faecium, > 32 µg/mL; with Staphylococcus aureus [1] it was 4 µg/mL (≈ 3.94 µM); in experiment [2], 2 µg/mL (≈ 1.97 µM); against Staphylococcus aureus [3], 8 µg/mL (≈ 7.88 µM); in the experiment on Pseudomonas aeruginosa, > 32 µg/mL. The IC50 with MDCK stood at 28 µM.

Consider `O=C(c1cc(Cl)c(Cl)[nH]1)c1c(O)ccc(C(c2csc(-c3ccccc3O)n2)c2ccc(O)c(C(=O)c3cc(Cl)c(Cl)[nH]3)c2O)c1O`, for which the MIC in the experiment on Bacillus subtilis is 4 µg/mL (≈ 5.47 µM); in the experiment on Enterococcus faecium, 8 µg/mL (≈ 10.9 µM); with Staphylococcus aureus [1] it was 4 µg/mL (≈ 5.47 µM); in experiment [2], 2 µg/mL (≈ 2.73 µM); against Staphylococcus aureus [3], 4 µg/mL (≈ 5.47 µM); in the experiment on Pseudomonas aeruginosa, 8 µg/mL (≈ 10.9 µM). Further, the half-maximal inhibitory concentration (IC50) in the experiment with MDCK was 92 µM.

`O=C(N[C@H](CO)[C@H](O)c1ccc([N+](=O)[O-])cc1)C(Cl)Cl` [CHLORAMPHENICOL] registered an MIC against Enterococcus faecium of 8 µg/mL (≈ 24.8 µM).

`CCn1cc(C(=O)O)c(=O)c2ccc(C)nc21` [NALIDIXIC ACID] showed an MIC against Pseudomonas aeruginosa of 4 µg/mL (≈ 17.2 µM).

Consider `O=C(c1cc(Cl)c(Cl)[nH]1)c1c(O)cccc1O` [PYOLUTEORIN], for which the MIC was determined as 8 µg/mL (≈ 29.4 µM) with Bacillus subtilis; 8 µg/mL (≈ 29.4 µM) against Enterococcus faecium; 4 µg/mL (≈ 14.7 µM) with Staphylococcus aureus [1]; 4 µg/mL (≈ 14.7 µM) in experiment [2]; 8 µg/mL (≈ 29.4 µM) with Staphylococcus aureus [3]; 16 µg/mL (≈ 58.8 µM) against Pseudomonas aeruginosa. For the same compound, the IC50 with MDCK is 4.8 µM.

As for `O=C(c1cc(Cl)c(Cl)[nH]1)c1c(O)ccc(Cc2ccc(O)c(C(=O)c3cc(Cl)c(Cl)[nH]3)c2O)c1O`, the MIC was 32 µg/mL (≈ 57.5 µM) against Bacillus subtilis; 32 µg/mL (≈ 57.5 µM) in the experiment on Enterococcus faecium; 32 µg/mL (≈ 57.5 µM) in the experiment with Staphylococcus aureus [1]; 32 µg/mL (≈ 57.5 µM) in experiment [2]; > 32 µg/mL against Staphylococcus aureus [3]; > 32 µg/mL with Pseudomonas aeruginosa. For the same compound, in the experiment with MDCK, the IC50 stood at 44 µM.
